Source: patent US11091463B2, “Amide-substituted pyridinyltriazole derivatives and uses thereof” (BAYER PHARMA AKTIENGESELLSCHAFT, priority 2016, dated 2021)

target: T1, human V1a receptor (Homo sapiens, UniProt P37288); test: Cellular in vitro assay for vasopressin receptor activity, V1a receptor cell line (photoprotein luminescence); format: cell-based; conditions: Table 1A; compounds of the invention; selectivity ratio
T1 construct: expressed in transfected cells; host or cells: CHO K1 (ATCC), also stably transfected with a modified aequorin
T1 sequence (P37288 whole entry): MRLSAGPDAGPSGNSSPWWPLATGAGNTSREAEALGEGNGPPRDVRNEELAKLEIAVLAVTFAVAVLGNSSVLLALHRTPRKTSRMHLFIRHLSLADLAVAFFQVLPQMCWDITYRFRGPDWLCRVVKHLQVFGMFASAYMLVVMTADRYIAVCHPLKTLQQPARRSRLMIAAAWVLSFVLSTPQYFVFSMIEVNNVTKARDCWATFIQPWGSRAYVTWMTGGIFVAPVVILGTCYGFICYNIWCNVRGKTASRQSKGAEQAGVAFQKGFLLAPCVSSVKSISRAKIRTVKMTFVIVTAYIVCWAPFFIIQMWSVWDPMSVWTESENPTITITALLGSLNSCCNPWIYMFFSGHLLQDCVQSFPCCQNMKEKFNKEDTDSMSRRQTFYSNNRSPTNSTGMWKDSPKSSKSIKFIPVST
Protocol: B-1. Cellular In Vitro Assay for Determining Vasopressin Receptor Activity
The identification of agonists and antagonists of the V1a and V2 vasopressin receptors from humans, rats and dogs as well as the quantification of the activity of the compounds of the invention is carried out using recombinant cell lines. These cell lines originally derive from a hamster's ovary epithelial cell (Chinese Hamster Ovary, CHO K1, ATCC: American Type Culture Collection, Manassas, Va. 20108, USA). The test cell lines constitutively express the human, rat or dog V1a or V2 receptors. In case of the Gαq-coupled V1a receptors, cells are also stably transfected with a modified form of the calcium-sensitive photoproteins aequorin (human and rat V1a) or obelin (dog V1a), which, after reconstitution with the cofactor coelenterazine, emit light when there are increases in free calcium concentrations [Rizzuto R, Simpson A W, Brini M, Pozzan T, Nature, 358, 325-327 (1992); Illarionov B A, Bondar V S, Illarionova V A, Vysotski E S, Gene, 153 (2), 273-274 (1995)]. The resulting vasopressin receptor cells react to stimulation of the recombinantly expressed V1a receptors by intracellular release of calcium ions, which can be quantified by the resulting photoprotein luminescence. The Gs-coupled V2 receptors are stably transfected into cell lines expressing the gene for firefly luciferase under control of a CRE-responsible promoter. Activation of V2 receptors induces the activation of the CRE-responsive promoter via cAMP increase, thereby inducing the expression of firefly luciferase. The light emitted by photoproteins of V1a cell lines as well as the light emitted by firefly luciferase of V2 cell lines corresponds to the activation or inhibition of the respective vasopressin receptor. The bioluminescence of the cell lines is detected using a suitable luminometer [Milligan G, Marshall F, Rees S, Trends in Pharmacological Sciences, 17, 235-237 (1996)].
Vasopressin V1a Receptor Cell Lines:
On the day before the assay, the cells are plated out in culture medium (DMEM/F12, 2% FCS, 2 mM glutamine, 10 mM HEPES, 5 μg/ml coelenterazine) in 384-well microtiter plates and kept in a cell incubator (96% humidity, 5% v/v CO2, 37° C.). On the day of the assay, test compounds in various concentrations are placed for 10 minutes in the wells of the microtiter plate before the agonist [Arg^8]-vasopressin at EC50 concentration is added. The resulting light signal is measured immediately in a luminometer.
Table 1A below lists individual IC50 values for the compounds of the invention (including racemic mixtures as well as separated enantiomers) that were obtained from cell lines transfected with the human V1a or V2 receptor: […]

| Structure (SMILES) | ratio IC50 hV2/hV1a |
| --- | --- |
| NC(=O)c1cccnc1-n1nc(Cn2nc(-c3ccc(Cl)cc3)n(C[C@H](O)C(F)(F)F)c2=O)nc1C(N)=O [Example 9, 2-[5-carbamoyl-3-({3-(4-chlorophenyl)-5-oxo-4-[(2S)-3,3,3-trifluoro-2-hydroxypropyl]-4,5-dihydro-1H-1,2,4-triazol-1-yl}methyl)-1H-1,2,4-triazol-1-yl]nicotinamide] | 30.0 |
| NC(=O)c1nc(Cn2nc(-c3ccc(Cl)cc3)n(C[C@H](O)C(F)(F)F)c2=O)nn1-c1ncccc1Br [Example 4, 1-(3-Bromopyridin-2-yl)-3-({3-(4-chlorophenyl)-5-oxo-4-[(2S)-3,3,3-trifluoro-2-hydroxypropyl]-4,5-dihydro-1H-1,2,4-triazol-1-yl}methyl)-1H-1,2,4-triazole-5-carboxamide] | 72.6 |
| NC(=O)c1nc(Cn2nc(-c3ccc(Cl)cc3)n(C[C@H](O)C(F)(F)F)c2=O)nn1-c1cnccc1C(F)(F)F [Example 7, 3-({3-(4-Chlorophenyl)-5-oxo-4-[(2S)-3,3,3-trifluoro-2-hydroxypropyl]-4,5-dihydro-1H-1,2,4-triazol-1-yl}methyl)-1-[4-(trifluoromethyl)pyridin-3-yl]-1H-1,2,4-triazole-5-carboxamide] | 117.3 |
| NC(=O)c1nc(Cn2nc(-c3ccc(Cl)cc3)n(C[C@@H](O)C(F)(F)F)c2=O)nn1-c1cnccc1C(F)(F)F [Example 13, 3-({3-(4-Chlorophenyl)-5-oxo-4-[(2R)-3,3,3-trifluoro-2-hydroxypropyl]-4,5-dihydro-1H-1,2,4-triazol-1-yl}methyl)-1-[4-(trifluoromethyl)pyridin-3-yl]-1H-1,2,4-triazole-5-carboxamide] | 431.3 |
| NC(=O)c1nc(Cn2nc(-c3ccc(Cl)cc3)n(C[C@@H](O)C(F)(F)F)c2=O)nn1-c1ncccc1Cl [Example 10, 3-({3-(4-Chlorophenyl)-5-oxo-4-[(2R)-3,3,3-trifluoro-2-hydroxypropyl]-4,5-dihydro-1H-1,2,4-triazol-1-yl}methyl)-1-(3-chloropyridin-2-yl)-1H-1,2,4-triazole-5-carboxamide] | 116.2 |
| NC(=O)c1nc(Cn2nc(-c3ccc(Cl)cc3)n(CC(=O)C(F)(F)F)c2=O)nn1-c1ncccc1Cl [Example 14, 3-{[3-(4-Chlorophenyl)-5-oxo-4-(3,3,3-trifluoro-2-oxopropyl)-4,5-dihydro-1H-1,2,4-triazol-1-yl]methyl}-1-(3-chloropyridin-2-yl)-1H-1,2,4-triazole-5-carboxamide (ketone form) or 3-{[3-(4-chlorophenyl)-5-oxo-4-(3,3,3-trifluoro-2,2-dihydroxypropyl)-4,5-dihydro-1H-1,2,4-triazol-1-yl]methyl}-1-[2-(trifluoromethyl)phenyl]-1H-1,2,4-triazole-5-carboxamide (hydrate form)] | 20.0 |
| NC(=O)c1nc(Cn2nc(-c3ccc(Cl)cc3)n(C[C@@H](O)C(F)(F)F)c2=O)nn1-c1ncccc1C(F)(F)F [Example 11, 3-({3-(4-Chlorophenyl)-5-oxo-4-[(2R)-3,3,3-trifluoro-2-hydroxypropyl]-4,5-dihydro-1H-1,2,4-triazol-1-yl}methyl)-1-[3-(trifluoromethyl)pyridin-2-yl]-1H-1,2,4-triazole-5-carboxamide] | 196.8 |
| NC(=O)c1nc(Cn2nc(-c3ccc(Cl)cc3)n(CC(=O)C(F)(F)F)c2=O)nn1-c1ncccc1Br [Example 15, 1-(3-Bromopyridin-2-yl)-3-{[3-(4-chlorophenyl)-5-oxo-4-(3,3,3-trifluoro-2-oxopropyl)-4,5-dihydro-1H-1,2,4-triazol-1-yl]methyl}-1H-1,2,4-triazole-5-carboxamide (ketone form) or 1-(3-Bromopyridin-2-yl)-3-{[3-(4-chlorophenyl)-5-oxo-4-(3,3,3-trifluoro-2,2-dihydroxypropyl)-4,5-dihydro-1H-1,2,4-triazol-1-yl]methyl}-1H-1,2,4-triazole-5-carboxamide (hydrate form)] | 47.2 |
| NC(=O)c1nc(Cn2nc(-c3ccc(Cl)cc3)n(C[C@H](O)C(F)(F)F)c2=O)nn1-c1ncccc1C(F)(F)F [Example 2, 3-({3-(4-Chlorophenyl)-5-oxo-4-[(2S)-3,3,3-trifluoro-2-hydroxypropyl]-4,5-dihydro-1H-1,2,4-triazol-1-yl}methyl)-1-[3-(trifluoromethyl)pyridin-2-yl]-1H-1,2,4-triazole-5-carboxamide] | 141.0 |
| NC(=O)c1nc(Cn2nc(-c3ccc(Cl)cc3)n(C[C@H](O)C(F)(F)F)c2=O)nn1-c1cnccc1Cl [Example 6, 3-({3-(4-Chlorophenyl)-5-oxo-4-[(2S)-3,3,3-trifluoro-2-hydroxypropyl]-4,5-dihydro-1H-1,2,4-triazol-1-yl}methyl)-1-(4-chloropyridin-3-yl)-1H-1,2,4-triazole-5-carboxamide] | 43.9 |
| NC(=O)c1nc(Cn2nc(-c3ccc(Cl)cc3)n(C[C@H](O)C(F)(F)F)c2=O)nn1-c1ncccc1OC(F)(F)F [Example 3, 3-({3-(4-Chlorophenyl)-5-oxo-4-[(2S)-3,3,3-trifluoro-2-hydroxypropyl]-4,5-dihydro-1H-1,2,4-triazol-1-yl}methyl)-1-[3-(trifluoromethoxy)pyridin-2-yl]-1H-1,2,4-triazole-5-carboxamide] | 54.7 |

Now from value to compound:

| ratio IC50 hV2/hV1a | Structure (SMILES) |
| --- | --- |
| 85.9 | CCOC(=O)c1cccnc1-n1nc(Cn2nc(-c3ccc(Cl)cc3)n(C[C@H](O)C(F)(F)F)c2=O)nc1C(N)=O [Example 5, Ethyl 2-[5-carbamoyl-3-({3-(4-chlorophenyl)-5-oxo-4-[(2S)-3,3,3-trifluoro-2-hydroxypropyl]-4,5-dihydro-1H-1,2,4-triazol-1-yl}methyl)-1H-1,2,4-triazol-1-yl]nicotinate] |
| 249.3 | NC(=O)c1nc(Cn2nc(-c3ccc(Cl)cc3)n(C[C@@H](O)C(F)(F)F)c2=O)nn1-c1cnccc1Cl [Example 12, 3-({3-(4-Chlorophenyl)-5-oxo-4-[(2R)-3,3,3-trifluoro-2-hydroxypropyl]-4,5-dihydro-1H-1,2,4-triazol-1-yl}methyl)-1-(4-chloropyridin-3-yl)-1H-1,2,4-triazole-5-carboxamide] |
| 53.6 | NC(=O)c1nc(Cn2nc(-c3ccc(Cl)cc3)n(CC(=O)C(F)(F)F)c2=O)nn1-c1cnccc1Cl [Example 16, 3-{[3-(4-Chlorophenyl)-5-oxo-4-(3,3,3-trifluoro-2-oxopropyl)-4,5-dihydro-1H-1,2,4-triazol-1-yl]methyl}-1-(4-chloropyridin-3-yl)-1H-1,2,4-triazole-5-carboxamide (ketone form) or 3-{[3-(4-Chlorophenyl)-5-oxo-4-(3,3,3-trifluoro-2,2-dihydroxypropyl)-4,5-dihydro-1H-1,2,4-triazol-1-yl]-methyl}-1-(4-chloropyridin-3-yl)-1H-1,2,4-triazole-5-carboxamide (hydrate form)] |
| 35.0 | CCOC(=O)c1ccncc1-n1nc(Cn2nc(-c3ccc(Cl)cc3)n(C[C@H](O)C(F)(F)F)c2=O)nc1C(N)=O [Example 8, Ethyl 3-[5-carbamoyl-3-({3-(4-chlorophenyl)-5-oxo-4-[(2S)-3,3,3-trifluoro-2-hydroxypropyl]-4,5-dihydro-1H-1,2,4-triazol-1-yl}methyl)-1H-1,2,4-triazol-1-yl]isonicotinate] |
| 38.2 | NC(=O)c1nc(Cn2nc(-c3ccc(Cl)cc3)n(C[C@H](O)C(F)(F)F)c2=O)nn1-c1ncccc1Cl [Example 1, 3-({3-(4-Chlorophenyl)-5-oxo-4-[(2S)-3,3,3-trifluoro-2-hydroxypropyl]-4,5-dihydro-1H-1,2,4-triazol-1-yl}methyl)-1-(3-chloropyridin-2-yl)-1H-1,2,4-triazole-5-carboxamide] |
